Data reported in patent US20020137929A1, “1 - (3-heterocyclylphenyl) isothiourea, -isourea, -guanidine and -amidine herbicidal agents” (Intellectual Property Department, BASF Aktiengesellschaft, priority 1998, published 2002).

Key:
ABUTH (Velvetleaf) = test: Postemergence herbicidal evaluation; assay type: in vivo, Abutilon theophrasti; details: for ABUTH herbicidal rating: postemergence
In short: (§1)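 Visual 0-9 injury score (stand, vigor, malformation, size, chlorosis, appearance vs untreated) taken four to five weeks post-spray, averaged across repeat tests. Test plants about two weeks old; foliar spray of acetone/water (1:1) with 0.5% surfactant delivering ~0.0156-0.500 kg active/ha.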

[1] = system: CHEAL (Lambsquarters, Common); test: Postemergence herbicidal evaluation; assay type: in vivo, Chenopodium album; details: for CHEAL herbicidal rating: postemergence
In short: as §1

SETVI (Foxtail, Green) [2] = test: Postemergence herbicidal evaluation; assay type: in vivo, Setaria viridis; details: for SETVI herbicidal rating: postemergence
In short: as §1

[3] = system: GLXMAW (Soybean, Williams); test: Postemergence herbicidal evaluation; assay type: in vivo, Glycine max, (L.) Merr. cv Williams; details: for GLXMAW herbicidal rating: postemergence
In short: as §1

ORYSAT (Rice, Tebonnet) = test: Postemergence herbicidal evaluation; assay type: in vivo, Oryza sativa, (L.) Tebonnet; details: for ORYSAT herbicidal rating: postemergence
In short: as §1

[4] = system: TRZAWR (Wheat, Winter, cv Riband); test: Postemergence herbicidal evaluation; assay type: in vivo, Triticum aestivum; details: for TRZAWR herbicidal rating: postemergence
In short: as §1

ZEAMX (Corn, Field) = test: Postemergence herbicidal evaluation; assay type: in vivo, Zea mays; details: for ZEAMX herbicidal rating: postemergence
In short: as §1

AMBEL (Ragweed, Common) = test: Preemergence herbicidal evaluation; assay type: in vivo, Ambrosia artemisifolia; details: rated 4-5 weeks after treatment
In short: (§2)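 Test compound, dissolved in aqueous acetone, was sprayed over planted soil cups at an equivalent of about 0.0156 to 0.500 kg/ha; seeds had been mixed with potting soil. Greenhouse growth followed, with visual 0-9 scoring of injury at four to five weeks.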

GALAP (Galium) = test: Preemergence herbicidal evaluation; assay type: in vivo, Galium aparine; details: rated 4-5 weeks after treatment
In short: as §2

SETVI (Foxtail, Green) [5] = test: Preemergence herbicidal evaluation; assay type: in vivo, Setaria viridis; details: rated 4-5 weeks after treatment
In short: as §2

CYPIR (Rice Flatsedge) = test: Preemergence weed control under flooded paddy conditions; assay type: in vivo, Cyperus iria; details: rated 3-4 weeks after treatment
In short: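 Ratings on a 0-9 visual scale cover stand, vigor, malformation, size, chlorosis and overall appearance relative to a control, taken three to four weeks post-treatment. Application was into flood water over freshly sown silt loam at roughly 0.0313 to 0.500 kg/ha.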

[6] = system: ECHORC (Watergrass (Calif.)); test: Postemergence weed control under flooded paddy conditions; assay type: in vivo, Echinochloa oryzoides; details: postemergence weeds, 3-4 weeks after treatment
In short: (§3)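 Flood-water application, about 0.0313–0.500 kg/ha a.i. in aqueous/acetone 50/50 v/v; water depth 1.5–3 cm throughout. Weeds 3–5 cm, rice 1.5–2.5 leaf. Greenhouse; 0–9 visual rating vs control at 3–4 wk.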

CYPSE (Flatsedge) = test: as above; assay type: in vivo, Cyperus serotinus; details: postemergence weeds, 3-4 weeks after treatment
In short: as §3

[7] = system: SAGPY (Arrowhead (Pygmaea)); test: as above; assay type: in vivo, Sagittaria pygmaea; details: postemergence weeds, 3-4 weeks after treatment
In short: as §3

CCOC(=O)CN1C(=O)CSC1=Nc1cc(N2C(=O)C3=C(CCCC3)C2=O)c(F)cc1Cl [Compound 47, Ethyl 2-{[2-chloro-5-(1-cyclohexene-1,2-dicarboximido)-4-fluorophenyl]imino}-4-oxo-3-thiazolidineacetate]
Postemergence herbicidal rating ABUTH (ABUTH (Velvetleaf); Rate 0.0156 kg/ha): 9.0 | Postemergence herbicidal rating ABUTH (ABUTH (Velvetleaf); Rate 0.0313 kg/ha): 9.0 | Postemergence herbicidal rating ABUTH (ABUTH (Velvetleaf); Rate 0.0625 kg/ha): 9.0 | Postemergence herbicidal rating CHEAL ([1]; Rate 0.0156 kg/ha): 3.0 | Postemergence herbicidal rating CHEAL ([1]; Rate 0.0313 kg/ha): 4.0 | Postemergence herbicidal rating SETVI (SETVI (Foxtail, Green) [2]; Rate 0.0156 kg/ha): 0.0 | Postemergence herbicidal rating SETVI (SETVI (Foxtail, Green) [2]; Rate 0.0313 kg/ha): 0.0 | Postemergence herbicidal rating SETVI (SETVI (Foxtail, Green) [2]; Rate 0.0625 kg/ha): 0.0 | Postemergence herbicidal rating GLXMAW ([3]; Rate 0.0156 kg/ha): 5.5 | Postemergence herbicidal rating GLXMAW ([3]; Rate 0.0313 kg/ha): 7.0 | Postemergence herbicidal rating GLXMAW ([3]; Rate 0.0625 kg/ha): 7.5 | Postemergence herbicidal rating ORYSAT (ORYSAT (Rice, Tebonnet); Rate 0.0156 kg/ha): 0.5 | Postemergence herbicidal rating ORYSAT (ORYSAT (Rice, Tebonnet); Rate 0.0313 kg/ha): 1.5 | Postemergence herbicidal rating ORYSAT (ORYSAT (Rice, Tebonnet); Rate 0.0625 kg/ha): 3.0 | Postemergence herbicidal rating TRZAWR ([4]; Rate 0.0156 kg/ha): 2.5 | Postemergence herbicidal rating TRZAWR ([4]; Rate 0.0313 kg/ha): 3.5 | Postemergence herbicidal rating TRZAWR ([4]; Rate 0.0625 kg/ha): 4.5 | Postemergence herbicidal rating ZEAMX (ZEAMX (Corn, Field); Rate 0.0156 kg/ha): 5.0 | Postemergence herbicidal rating ZEAMX (ZEAMX (Corn, Field); Rate 0.0313 kg/ha): 7.0 | Postemergence herbicidal rating ZEAMX (ZEAMX (Corn, Field); Rate 0.0625 kg/ha): 7.5 | Preemergence herbicidal rating AMBEL (AMBEL (Ragweed, Common); rate 0.0156 kg/ha): 0.0 | Preemergence herbicidal rating AMBEL (AMBEL (Ragweed, Common); rate 0.0313 kg/ha): 0.0 | Preemergence herbicidal rating AMBEL (AMBEL (Ragweed, Common); rate 0.0625 kg/ha): 0.0 | Preemergence herbicidal rating AMBEL (AMBEL (Ragweed, Common); rate 0.1250 kg/ha): 0.0 | Preemergence herbicidal rating AMBEL (AMBEL (Ragweed, Common); rate 0.2500 kg/ha): 0.0 | Preemergence herbicidal rating GALAP (GALAP (Galium); rate 0.0156 kg/ha): 0.0 | Preemergence herbicidal rating GALAP (GALAP (Galium); rate 0.0313 kg/ha): 0.0 | Preemergence herbicidal rating GALAP (GALAP (Galium); rate 0.0625 kg/ha): 0.0 | Preemergence herbicidal rating GALAP (GALAP (Galium); rate 0.1250 kg/ha): 0.0 | Preemergence herbicidal rating GALAP (GALAP (Galium); rate 0.2500 kg/ha): 9.0 | Preemergence herbicidal rating SETVI (SETVI (Foxtail, Green) [5]; rate 0.0156 kg/ha): 0.0 | Preemergence herbicidal rating SETVI (SETVI (Foxtail, Green) [5]; rate 0.0313 kg/ha): 0.0 | Preemergence herbicidal rating SETVI (SETVI (Foxtail, Green) [5]; rate 0.0625 kg/ha): 0.0 | Preemergence herbicidal rating SETVI (SETVI (Foxtail, Green) [5]; rate 0.1250 kg/ha): 0.0 | Preemergence herbicidal rating SETVI (SETVI (Foxtail, Green) [5]; rate 0.2500 kg/ha): 4.0 | Herbicidal rating CYPIR (CYPIR (Rice Flatsedge); 0.0313 kg/ha): 0.0 | Herbicidal rating CYPIR (CYPIR (Rice Flatsedge); 0.0625 kg/ha): 0.0 | Herbicidal rating CYPIR (CYPIR (Rice Flatsedge); 0.1250 kg/ha): 4.0 | Herbicidal rating CYPIR (CYPIR (Rice Flatsedge); 0.2500 kg/ha): 6.0 | Herbicidal rating ECHORC ([6]; rate 0.0313 kg/ha): 0.0 | Herbicidal rating ECHORC ([6]; rate 0.0625 kg/ha): 2.0 | Herbicidal rating ECHORC ([6]; rate 0.1250 kg/ha): 4.0 | Herbicidal rating ECHORC ([6]; rate 0.2500 kg/ha): 7.0 | Herbicidal rating CYPSE (CYPSE (Flatsedge); rate 0.0313 kg/ha): 0.0 | Herbicidal rating CYPSE (CYPSE (Flatsedge); rate 0.0625 kg/ha): 0.0 | Herbicidal rating CYPSE (CYPSE (Flatsedge); rate 0.1250 kg/ha): 0.0 | Herbicidal rating CYPSE (CYPSE (Flatsedge); rate 0.2500 kg/ha): 0.0 | Herbicidal rating SAGPY ([7]; rate 0.0313 kg/ha): 0.0 | Herbicidal rating SAGPY ([7]; rate 0.0625 kg/ha): 0.0 | Herbicidal rating SAGPY ([7]; rate 0.1250 kg/ha): 4.0 | Herbicidal rating SAGPY ([7]; rate 0.2500 kg/ha): 7.0

CCOC(=O)CN1C(=O)C(=C2CCCC2)SC1=Nc1cc(-n2c(=O)cc(C(F)(F)F)n(C)c2=O)c(F)cc1Cl [Compound 18, Ethyl 2-{{2-chloro-5-[3,6-dihydro-3-methyl-2,6-dioxo-4-(trifluoromethyl)-1(2H)-pyrimidinyl]-4-fluorophenyl}imino}-5-cyclopentylidene-4-oxo-3-thiazolidineacetate]
ABUTH herbicidal rating (ABUTH (Velvetleaf); rate 0.0158 kg/ha): 9.0 | ABUTH herbicidal rating (ABUTH (Velvetleaf); rate 0.0315 kg/ha): 9.0 | ABUTH herbicidal rating (ABUTH (Velvetleaf); rate 0.0630 kg/ha): 9.0 | CHEAL herbicidal rating ([1]; rate 0.0158 kg/ha): 6.0 | CHEAL herbicidal rating ([1]; rate 0.0315 kg/ha): 9.0 | CHEAL herbicidal rating ([1]; rate 0.0630 kg/ha): 9.0 | SETVI herbicidal rating (SETVI (Foxtail, Green) [2]; rate 0.0158 kg/ha): 0.0 | SETVI herbicidal rating (SETVI (Foxtail, Green) [2]; rate 0.0315 kg/ha): 1.0 | SETVI herbicidal rating (SETVI (Foxtail, Green) [2]; rate 0.0630 kg/ha): 6.0 | GLXMAW herbicidal rating ([3]; rate 0.0158 kg/ha): 3.5 | GLXMAW herbicidal rating ([3]; rate 0.0315 kg/ha): 3.5 | GLXMAW herbicidal rating ([3]; rate 0.0630 kg/ha): 3.5 | ORYSAT herbicidal rating (ORYSAT (Rice, Tebonnet); rate 0.0158 kg/ha): 2.0 | ORYSAT herbicidal rating (ORYSAT (Rice, Tebonnet); rate 0.0315 kg/ha): 1.5 | ORYSAT herbicidal rating (ORYSAT (Rice, Tebonnet); rate 0.0630 kg/ha): 1.5 | TRZAWR herbicidal rating ([4]; rate 0.0158 kg/ha): 2.5 | TRZAWR herbicidal rating ([4]; rate 0.0315 kg/ha): 3.0 | TRZAWR herbicidal rating ([4]; rate 0.0630 kg/ha): 3.0 | ZEAMX herbicidal rating (ZEAMX (Corn, Field); rate 0.0158 kg/ha): 4.0 | ZEAMX herbicidal rating (ZEAMX (Corn, Field); rate 0.0315 kg/ha): 4.5 | ZEAMX herbicidal rating (ZEAMX (Corn, Field); rate 0.0630 kg/ha): 4.0 | AMBEL preemergence herbicidal rating (AMBEL (Ragweed, Common); rate 0.1250 kg/ha): 1.0 | AMBEL preemergence herbicidal rating (AMBEL (Ragweed, Common); rate 0.2500 kg/ha): 4.0 | GALAP preemergence herbicidal rating (GALAP (Galium); rate 0.1250 kg/ha): 0.0 | GALAP preemergence herbicidal rating (GALAP (Galium); rate 0.2500 kg/ha): 9.0 | SETVI preemergence herbicidal rating (SETVI (Foxtail, Green) [5]; rate 0.1250 kg/ha): 0.0 | SETVI preemergence herbicidal rating (SETVI (Foxtail, Green) [5]; rate 0.2500 kg/ha): 2.0 | Herbicidal rating CYPIR (CYPIR (Rice Flatsedge); 0.1160 kg/ha): 0.0 | Herbicidal rating CYPIR (CYPIR (Rice Flatsedge); 0.2310 kg/ha): 0.0 | Herbicidal rating CYPIR (CYPIR (Rice Flatsedge); 0.4630 kg/ha): 0.0 | Herbicidal rating ECHORC ([6]; rate 0.1160 kg/ha): 7.0 | Herbicidal rating ECHORC ([6]; rate 0.2310 kg/ha): 7.0 | Herbicidal rating ECHORC ([6]; rate 0.4630 kg/ha): 7.0 | Herbicidal rating CYPSE (CYPSE (Flatsedge); rate 0.1160 kg/ha): 0.0 | Herbicidal rating CYPSE (CYPSE (Flatsedge); rate 0.2310 kg/ha): 0.0 | Herbicidal rating CYPSE (CYPSE (Flatsedge); rate 0.4630 kg/ha): 4.0 | Herbicidal rating SAGPY ([7]; rate 0.1160 kg/ha): 0.0 | Herbicidal rating SAGPY ([7]; rate 0.2310 kg/ha): 0.0 | Herbicidal rating SAGPY ([7]; rate 0.4630 kg/ha): 6.0
